Laboratory results published in the supplement of paper PMC10307832.

How the values were obtained:
Test in all cases: relative viability (nuclei count vs DMSO), 5 days (fraction); higher = more cells survive
Elesclomol + Lapatinib = compound: CN(NC(=O)CC(=O)NN(C)C(=S)c1ccccc1)C(=S)c1ccccc1 [Elesclomol] + CS(=O)(=O)CCNCc1ccc(-c2ccc3ncnc(Nc4ccc(OCc5cccc(F)c5)c(Cl)c4)c3c2)o1 [Lapatinib] (partner 2 µM)
Method in brief: (§1)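 Medians of duplicate plates are given as relative viability. That measure is the nuclei count in treated wells divided by the count in vehicle wells. Counts were taken on 4× images of lung cancer cell lines in 1536-well plates, 5 days after pin-tool dosing the day after seeding with one drug alone or a fixed anchor-drug dose plus five library-drug doses (not always all listed) in √10 steps.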

Elesclomol + Pictilisib = compound: CN(NC(=O)CC(=O)NN(C)C(=S)c1ccccc1)C(=S)c1ccccc1 [Elesclomol] + CS(=O)(=O)N1CCN(Cc2cc3nc(-c4cccc5[nH]ncc45)nc(N4CCOCC4)c3s2)CC1 [Pictilisib] (partner 1 µM)
Method in brief: as §1

Elesclomol + Alpelisib = compound: CN(NC(=O)CC(=O)NN(C)C(=S)c1ccccc1)C(=S)c1ccccc1 [Elesclomol] + Cc1nc(NC(=O)N2CCC[C@H]2C(N)=O)sc1-c1ccnc(C(C)(C)C(F)(F)F)c1 [Alpelisib] (partner 2 µM)
Method in brief: as §1

Elesclomol + Dasatinib = compound: CN(NC(=O)CC(=O)NN(C)C(=S)c1ccccc1)C(=S)c1ccccc1 [Elesclomol] + Cc1nc(Nc2ncc(C(=O)Nc3c(C)cccc3Cl)s2)cc(N2CCN(CCO)CC2)n1 [Dasatinib] (partner 0.075 µM)
Method in brief: as §1

Elesclomol + Phenformin = compound: CN(NC(=O)CC(=O)NN(C)C(=S)c1ccccc1)C(=S)c1ccccc1 [Elesclomol] + N=C(N)NC(=N)NCCc1ccccc1 [Phenformin] (partner 250 µM)
Method in brief: as §1

Row | Cell Line | relative viability (Elesclomol + Lapatinib; first compound 0.003162 µM) | relative viability (Elesclomol + Lapatinib; first compound 0.01 µM) | relative viability (Elesclomol + Lapatinib; first compound 0.03162 µM) | relative viability (Elesclomol + Lapatinib; first compound 0.1 µM) | relative viability (Elesclomol + Pictilisib; first compound 0.003162 µM) | relative viability (Elesclomol + Pictilisib; first compound 0.01 µM) | relative viability (Elesclomol + Pictilisib; first compound 0.03162 µM) | relative viability (Elesclomol + Pictilisib; first compound 0.1 µM) | relative viability (Elesclomol + Alpelisib; first compound 0.003162 µM) | relative viability (Elesclomol + Alpelisib; first compound 0.01 µM) | relative viability (Elesclomol + Alpelisib; first compound 0.03162 µM) | relative viability (Elesclomol + Alpelisib; first compound 0.1 µM) | relative viability (Elesclomol + Dasatinib; first compound 0.003162 µM) | relative viability (Elesclomol + Dasatinib; first compound 0.01 µM) | relative viability (Elesclomol + Dasatinib; first compound 0.03162 µM) | relative viability (Elesclomol + Dasatinib; first compound 0.1 µM) | relative viability (Elesclomol + Phenformin; first compound 0.003162 µM) | relative viability (Elesclomol + Phenformin; first compound 0.01 µM) | relative viability (Elesclomol + Phenformin; first compound 0.03162 µM) | relative viability (Elesclomol + Phenformin; first compound 0.1 µM)
1 | NCI-H460 | 0.755 | 0.229 | 0.0103 | 0.0101 | 0.361 | 0.291 | 0.309 | 0.259 | 0.434 | 0.0761 | 0.0128 | 0.0117 | 0.516 | 0.422 | 0.0534 | 0.0171 | 0.439 | 0.0498 | 0.0181 | 0.0123
2 | NCI-H520 | 0.91 | 0.666 | 0.373 | 0.0913 | 0.255 | 0.279 | 0.22 | 0.132 | 0.884 | 0.667 | 0.563 | 0.0734 | 0.166 | 0.158 | 0.138 | 0.0789 | 0.555 | 0.535 | 0.61 | 0.105
3 | NCI-H596 | 1.04 | 1.11 | 1.03 | 0.381 | 0.374 | 0.341 | 0.346 | 0.218 | 0.437 | 0.472 | 0.458 | 0.213 | 0.606 | 0.545 | 0.575 | 0.21 | 0.734 | 0.693 | 0.714 | 0.335
4 | NCI-H647 | 1.08 | 0.765 | 0.267 | 0.0231 | 0.492 | 0.168 | 0.204 | 0.0838 | 1.12 | 0.998 | 0.245 | 0.017 | 0.172 | 0.142 | 0.0544 | 0.0326 | 0.546 | 0.234 | 0.104 | 0.0401
5 | NCI-H650 | 0.805 | 0.373 | 0.195 | 0.289 | 0.875 | 0.361 | 0.276 | 0.256 | 1.09 | 0.342 | 0.271 | 0.237 | 0.535 | 0.341 | 0.227 | 0.24 | 0.468 | 0.345 | 0.315 | 0.361
6 | NCI-H661 | 0.368 | 0.205 | 0.236 | 0.186 | 0.356 | 0.373 | 0.214 | 0.212 | 0.619 | 0.387 | 0.2 | 0.234 | 0.869 | 0.477 | 0.223 | 0.177 | 0.272 | 0.305 | 0.25 | 0.193
7 | NCI-H727 | 0.591 | 0.365 | 0.165 | 0.0475 | 0.331 | 0.226 | 0.158 | 0.0437 | 0.545 | 0.258 | 0.117 | 0.0342 | 0.319 | 0.242 | 0.128 | 0.0864 | 0.547 | 0.488 | 0.402 | 0.177
8 | NCI-H838 | 0.984 | 0.838 | 0.683 | 0.555 | 0.465 | 0.413 | 0.439 | 0.357 | 1.13 | 0.892 | 0.967 | 0.706 | 0.287 | 0.296 | 0.224 | 0.177 | 0.536 | 0.508 | 0.455 | 0.152
9 | NCI-H1355 | 1.05 | 0.786 | 0.657 | 0.222 | 0.549 | 0.191 | 0.257 | 0.178 | 0.832 | 0.636 | 0.466 | 0.16 | 0.736 | 0.639 | 0.396 | 0.178 | 0.464 | 0.409 | 0.391 | 0.312
10 | NCI-H1395 | 1.01 | 0.368 | 0.289 | 0.304 | 0.65 | 0.324 | 0.292 | 0.436 | 0.999 | 0.571 | 0.252 | 0.259 | 0.387 | 0.304 | 0.266 | 0.22 | 0.45 | 0.364 | 0.296 | 0.27
11 | NCI-H1437 | 0.637 | 0.45 | 0.346 | 0.265 | 0.391 | 0.321 | 0.198 | 0.137 | 0.886 | 0.61 | 0.341 | 0.283 | 0.246 | 0.18 | 0.116 | 0.128 | 0.292 | 0.252 | 0.246 | 0.217
12 | NCI-H1563 | 0.625 | 0.562 | 0.601 | 0.458 | 0.656 | 0.582 | 0.587 | 0.486 | 0.687 | 0.613 | 0.537 | 0.527 | 0.447 | 0.476 | 0.413 | 0.382 | 0.589 | 0.569 | 0.516 | 0.479
13 | NCI-H1651 | 0.715 | 0.415 | 0.112 | 0.0857 | 0.454 | 0.323 | 0.177 | 0.0888 | 0.762 | 0.435 | 0.235 | 0.0895 | 0.343 | 0.258 | 0.115 | 0.0916 | 0.321 | 0.257 | 0.151 | 0.1
